Measurements published in patent US20150025012A1, “METHODS AND COMPOSITIONS FOR IDENTIFICATION, ASSESSMENT AND TREATMENT OF CANCERS ASSOCIATED WITH HEDGEHOG SIGNALING” (Infinity Pharmaceuticals, Inc., priority 2010, published 2015).
Entries after “also recorded” stand apart in the source; their conditions may differ.

Key:
[1] = tested on: hGli-1 mRNA expression; assay: Gli-1 mRNA expression after SHh stimulation in tumor cell lines (qRT-PCR); assay type: cell-based, human; settings: SW872 liposarcoma cell lines; 500 nM IPI-926
Experimental: Several tumor cell lines were tested for Hh pathway responsiveness and for the presence or absence of cilia or vimentin immunofluorescence (IF). Hh pathway responsiveness was evaluated by detecting increases in hGli-1 mRNA expression in response to Sonic Hedgehog stimulation) in a control sample (C), sample treated with Sonic Hedgehog (SHh), and sample treated with SHh and 500 nM of the hedgehog inhibitor IPI-926 (926). Procedures for RNA extraction and RT-PCR detection were performed by standard methods. Briefly, total RNA was extracted from all tumors using a standard RNEASY® Mini Kit (Qiagen). Next, the RNA was converted to cDNA and 50 ng cDNA was used in each reaction/sample for qRT-PCR analysis of the expression of human Gli1. Samples were tested in duplicate. Cilia and Vimentin IF was performed using standard immunofluorescent methods. Cilia were detected on cells using immunofluorescence (IF) with antibodies specific for acetylated-tubulin obtained from Sigma Aldrich. Cells were co-stained with antibodies to the centriole-specific protein pericentrin.
Hh pathway modulation measured after growing cells in low serum and treating with SHh ligand in the presence or absence of IPI-926. Cell lines were cultured under the following conditions. […]

[2] = tested on: patient derived tumor xenograft models; assay: Tumor growth in patient derived tumor xenograft models; assay type: in vivo, Mice
Excerpt: Mice received daily treatment of IPI-926, M-F, for 6-10 weeks (n=10-15 per group).

[3] = tested on: subcutaneous L3.6pl tumor model; assay: Tumor perfusion by contrast enhanced high frequency ultrasound; assay type: in vivo, mice; settings: IPI-926 orally 40 mg/kg for seven days, compared to vehicle
Experimental: The L3.6pl tumor cell line was injected subcutaneously and treatment with IPI-926 was initiated. IPI-926 or vehicle was administered orally at 40 mg/kg for seven consecutive days. On the eighth day, animals were subjected to ultrasound image capture and analysis using the Vevo 2100 high frequency ultrasound instrument (Visualsonics) in conjunction with contrast enhancement (microbubbles) during the imaging procedure. Contrast agent was administered by iv administration during the imaging procedure and quantified by measuring echogenic signal derived from the contrast agent over time.

[4] = tested on: Gli1 mRNA; assay: Real-time RT-PCR of Gli1 mRNA in laser capture microdissected BCC tumor samples; assay type: in vivo, human; settings: post-treatment versus pre-treatment, BCC patients
Experimental: As a comparison, real-time RT-PCR was performed using RNA extracted from Laser Capture Microdissected tumor samples from BCC patients. The ddCt method was used to calculate the real-time PCR results (Livak K. J. et al. (2001) Methods. 25(4):402-8). FIG. 27 is a bar graph depicting the quantitation of Gli1 mRNA pre- and post treatment with IPI-926. Although a decrease level of Gli1 mRNA is detected post-treatment, the level of reduction is not as pronounced as that detected by evaluating nuclear localization of Gli1.

[5] = tested on: preclinical in vivo tumor models; settings: medulloblastoma, SCLC, NSCLC, skin, head and neck, ovarian cancer; cited from earlier work
[6] = daily treatment M-F for 6-10 weeks, multiple models

CC1=C2C[C@H]3[C@@H](CC[C@@H]4C[C@H](NS(C)(=O)=O)CC[C@@]43C)[C@@H]2CC[C@@]2(C1)O[C@@H]1C[C@H](C)CN[C@H]1[C@H]2C [IPI-926]
SHh-upregulated Gli-1 mRNA expression [1]: blocked
changes in morphology ([2]; FIGS. 22A-22D micrographs): loss of tumor cells and calcification of the chondroid matrix
mean tumor growth inhibition [2, 6]: 43%
range of tumor growth inhibition [2, 6]: 33-52%
time to reach peak contrast [3]: decrease; also recorded: change
level of Gli1 mRNA [4]: decrease
tumor growth in preclinical in vivo models [5]: tumor growth inhibition
